Assay results reported in PMC10728895, “Stapled Phd Peptides Inhibit Doc Toxin Induced Growth Arrest in Salmonella” (ACS Chemical Biology, 2023).
Positions of bridges follow the written chain, without caps; N, C: chain ends. Non-standard residues stand in square brackets, D forms with d. Residues, ends and D or L forms follow the SMILES beside them. S5 = C=CCCC[C@](C)(N)C(=O)O; Nle = CCCC[C@H](N)C(=O)O

These compounds were tested on DocSTm toxin. Conditions: DocSTm 5 μM, peptide 50 μM, pH 8.0; average ± SD, replicates 3-48 (Table S3).
Procedure: The thermal shift assay was performed using a Mx3005P qPCR System (Agilent) collecting fluorescence data with a temperature ramp of 25 to 95 °C. Samples were prepared in a buffer containing 20 mM K2HPO4 and 50 mM (NH4)2SO4 at pH 8.0, with a final concentration of recombinant Doc protein at 5 μM and Phd peptides at 50 μM. SYPRO Orange dye (Sigma-Aldrich, 5000X stock in DMSO) was used to monitor protein denaturation in a final concentration of 3×. The final sample volume was 20 μL. Each condition was prepared in triplicate in each independent experiment. The melting curves were plotted using GraphPad Prism 9 (GraphPad Software, USA), and the melting temperatures were obtained by fitting the sigmoidal section of the curves to a Boltzmann sigmoid function. For the calculation of thermal shifts ΔTm, the average melting temperature of free DocSTm toxin as determined in the respective peptide measurement cycles was subtracted from the average melting temperature of DocSTm in the presence of the peptide (Table S3).

SMILES | Average Tm of DocSTm in the presence of peptide [°C]
CCCC[C@H](NC(=O)[C@H](Cc1c[nH]c2ccccc12)NC(C)=O)C(=O)N[C@@H](CCCNC(=N)N)C(=O)N[C@@H](CC(N)=O)C(=O)N[C@@H](CCC(=O)O)C(=O)N[C@@H](Cc1ccccc1)C(=O)N[C@@H](C)C(=O)N[C@@H](C)C(=O)N[C@H](C(=O)N[C@@H](CCCC)C(=O)N[C@@H](CCCNC(=N)N)C(=O)N[C@H](C(=O)N[C@@H](Cc1c[nH]cn1)C(=O)NCC(=O)N[C@@H](CC(N)=O)C(=O)N[C@@H](CCC(N)=O)C(=O)N[C@@H](CC(C)C)C(=O)N[C@@H](CCCNC(=N)N)C(=O)N[C@@H](CCC(=O)O)C(=O)N[C@@H](CC(C)C)C(=O)N[C@@H](C)C(=O)N[C@@H](CC(N)=O)C(=O)N[C@@H](CCCCN)C(=O)O)C(C)C)[C@@H](C)CC [Peptide 26] (Ac-W[Nle]RNEFAAI[Nle]RVHGNQLRELANK-OH) | 62.9 ± 0.3
CCCC[C@H](NC(=O)[C@H](Cc1c[nH]c2ccccc12)NC(C)=O)C(=O)N[C@@H](CC(=O)O)C(=O)N[C@@H](CC(=O)O)C(=O)N[C@@H](CCCNC(=N)N)C(=O)N[C@@H](Cc1ccccc1)C(=O)N[C@@H](C)C(=O)N[C@@H](C)C(=O)N[C@H](C(=O)N[C@@H](CCCC)C(=O)N[C@@H](C)C(=O)N[C@H](C(=O)N[C@@H](Cc1c[nH]cn1)C(=O)NCC(=O)N[C@@H](CC(N)=O)C(=O)N[C@@H](CCC(=O)O)C(=O)N[C@@H](CC(C)C)C(=O)N[C@@H](CCCNC(=N)N)C(=O)N[C@@H](CCC(=O)O)C(=O)N[C@@H](CC(C)C)C(=O)N[C@@H](C)C(=O)N[C@@H](CC(=O)O)C(=O)N[C@@H](CCCCN)C(=O)O)C(C)C)[C@@H](C)CC [Peptide 4] (Ac-W[Nle]DDRFAAI[Nle]AVHGNELRELADK-OH) | 56.8 ± 2.1
CCCC[C@H](NC(=O)[C@H](Cc1c[nH]c2ccccc12)NC(C)=O)C(=O)N[C@@H](CC(=O)O)C(=O)N[C@@H](CC(=O)O)C(=O)N[C@@H](CCC(=O)O)C(=O)N[C@@H](Cc1ccccc1)C(=O)N[C@@H](C)C(=O)N[C@@H](C)C(=O)N[C@H](C(=O)N[C@@H](CCCC)C(=O)N[C@@H](C)C(=O)N[C@@H](CCCNC(=N)N)C(=O)N[C@@H](Cc1c[nH]cn1)C(=O)NCC(=O)N[C@@H](CC(N)=O)C(=O)N[C@@H](CCC(=O)O)C(=O)N[C@@H](CC(C)C)C(=O)N[C@@H](CCCNC(=N)N)C(=O)N[C@@H](CCC(=O)O)C(=O)N[C@@H](CC(C)C)C(=O)N[C@@H](C)C(=O)N[C@@H](CC(=O)O)C(=O)N[C@@H](CCCCN)C(=O)O)[C@@H](C)CC [Peptide 8] (Ac-W[Nle]DDEFAAI[Nle]ARHGNELRELADK-OH) | 67.8 ± 0.1
CCCC[C@H](NC(=O)[C@H](Cc1c[nH]c2ccccc12)NC(C)=O)C(=O)N[C@@H](CCCNC(=N)N)C(=O)N[C@@H](CC(N)=O)C(=O)N[C@@H](CCC(N)=O)C(=O)N[C@@H](Cc1ccccc1)C(=O)N[C@@H](C)C(=O)N[C@@H](C)C(=O)N[C@H](C(=O)N[C@@H](CCCC)C(=O)N[C@@H](CCCNC(=N)N)C(=O)N[C@H](C(=O)N[C@@H](Cc1c[nH]cn1)C(=O)NCC(=O)N[C@@]1(C)CCCC=CCCC[C@@](C)(C(=O)N[C@@H](CC(C)C)C(=O)N[C@@H](C)C(=O)N[C@@H](CC(N)=O)C(=O)N[C@@H](CCCCN)C(=O)O)NC(=O)[C@H](CCCNC(=N)N)NC(=O)[C@H](CC(C)C)NC(=O)[C@H](CCC(N)=O)NC1=O)C(C)C)[C@@H](C)CC [Peptide 23] (Ac-W[Nle]RNQFAAI[Nle]RVHG[S5]QLR[S5]LANK-OH; staple 15-19) | 57.5 ± 0.9
CCCC[C@H](NC(=O)[C@H](Cc1c[nH]c2ccccc12)NC(C)=O)C(=O)N[C@@H](CCCNC(=N)N)C(=O)N[C@@H](CC(N)=O)C(=O)N[C@@H](CCC(N)=O)C(=O)N[C@@H](Cc1ccccc1)C(=O)N[C@@H](CCCNC(=N)N)C(=O)N[C@@H](C)C(=O)N[C@H](C(=O)N[C@@H](CCCC)C(=O)N[C@@H](CCCNC(=N)N)C(=O)N[C@H](C(=O)N[C@@H](Cc1c[nH]cn1)C(=O)NCC(=O)N[C@@H](CC(N)=O)C(=O)N[C@@H](CCC(N)=O)C(=O)N[C@@H](CC(C)C)C(=O)N[C@@H](CCCNC(=N)N)C(=O)N[C@@H](CCC(=O)O)C(=O)N[C@@H](CC(C)C)C(=O)N[C@@H](C)C(=O)N[C@@H](CC(N)=O)C(=O)N[C@@H](CCCCN)C(=O)O)C(C)C)[C@@H](C)CC [Peptide 24] (Ac-W[Nle]RNQFRAI[Nle]RVHGNQLRELANK-OH) | 54.3 ± 1.6
CCCC[C@H](NC(=O)[C@H](Cc1c[nH]c2ccccc12)NC(C)=O)C(=O)N[C@@H](CC(=O)O)C(=O)N[C@@H](CCCNC(=N)N)C(=O)N[C@@H](CCC(=O)O)C(=O)N[C@@H](Cc1ccccc1)C(=O)N[C@@H](C)C(=O)N[C@@H](C)C(=O)N[C@H](C(=O)N[C@@H](CCCC)C(=O)N[C@@H](C)C(=O)N[C@H](C(=O)N[C@@H](Cc1c[nH]cn1)C(=O)NCC(=O)N[C@@H](CC(N)=O)C(=O)N[C@@H](CCC(=O)O)C(=O)N[C@@H](CC(C)C)C(=O)N[C@@H](CCCNC(=N)N)C(=O)N[C@@H](CCC(=O)O)C(=O)N[C@@H](CC(C)C)C(=O)N[C@@H](C)C(=O)N[C@@H](CC(=O)O)C(=O)N[C@@H](CCCCN)C(=O)O)C(C)C)[C@@H](C)CC [Peptide 3] (Ac-W[Nle]DREFAAI[Nle]AVHGNELRELADK-OH) | 67.4 ± 0.2
CCCC[C@H](NC(=O)[C@H](Cc1c[nH]c2ccccc12)NC(C)=O)C(=O)N[C@@H](CC(=O)O)C(=O)N[C@@H](CC(=O)O)C(=O)N[C@@H](CCC(=O)O)C(=O)N[C@@H](Cc1ccccc1)C(=O)N[C@@H](C)C(=O)N[C@@H](C)C(=O)N[C@H](C(=O)N[C@@H](CCCC)C(=O)N[C@@H](C)C(=O)N[C@H](C(=O)N[C@@H](Cc1c[nH]cn1)C(=O)NCC(=O)N[C@@H](CC(N)=O)C(=O)N[C@@H](CCC(=O)O)C(=O)N[C@@H](CC(C)C)C(=O)N[C@@H](CCCNC(=N)N)C(=O)N[C@@H](CCCNC(=N)N)C(=O)N[C@@H](CC(C)C)C(=O)N[C@@H](C)C(=O)N[C@@H](CC(=O)O)C(=O)N[C@@H](CCCCN)C(=O)O)C(C)C)[C@@H](C)CC [Peptide 11] (Ac-W[Nle]DDEFAAI[Nle]AVHGNELRRLADK-OH) | 73.5 ± 1.3
CCCC[C@H](NC(=O)[C@H](Cc1c[nH]c2ccccc12)NC(C)=O)C(=O)N[C@@H](CCCNC(=N)N)C(=O)N[C@@H](CC(N)=O)C(=O)N[C@@H](CCC(=O)O)C(=O)N[C@@H](Cc1ccccc1)C(=O)N[C@@H](CCCNC(=N)N)C(=O)N[C@@H](C)C(=O)N[C@H](C(=O)N[C@@H](CCCC)C(=O)N[C@@H](CCCNC(=N)N)C(=O)N[C@H](C(=O)N[C@@H](Cc1c[nH]cn1)C(=O)NCC(=O)N[C@@H](CC(N)=O)C(=O)N[C@@H](CCC(N)=O)C(=O)N[C@@H](CC(C)C)C(=O)N[C@@H](CCCNC(=N)N)C(=O)N[C@@H](CCC(=O)O)C(=O)N[C@@H](CC(C)C)C(=O)N[C@@H](C)C(=O)N[C@@H](CC(N)=O)C(=O)N[C@@H](CCCCN)C(=O)O)C(C)C)[C@@H](C)CC [Peptide 28] (Ac-W[Nle]RNEFRAI[Nle]RVHGNQLRELANK-OH) | 62.1 ± 0.2
CCCC[C@H](NC(=O)[C@H](Cc1c[nH]c2ccccc12)NC(C)=O)C(=O)N[C@@H](CCCNC(=N)N)C(=O)N[C@@H](CC(N)=O)C(=O)N[C@@H](CCC(N)=O)C(=O)N[C@@H](Cc1ccccc1)C(=O)N[C@@H](CCCNC(=N)N)C(=O)N[C@@H](C)C(=O)N[C@H](C(=O)N[C@@H](CCCC)C(=O)N[C@@H](CCCNC(=N)N)C(=O)N[C@H](C(=O)N[C@@H](Cc1c[nH]cn1)C(=O)NCC(=O)N[C@@]1(C)CCCC=CCCC[C@@](C)(C(=O)N[C@@H](CC(C)C)C(=O)N[C@@H](C)C(=O)N[C@@H](CC(N)=O)C(=O)N[C@@H](CCCCN)C(=O)O)NC(=O)[C@H](CCCNC(=N)N)NC(=O)[C@H](CC(C)C)NC(=O)[C@H](CCC(N)=O)NC1=O)C(C)C)[C@@H](C)CC [Peptide 25] (Ac-W[Nle]RNQFRAI[Nle]RVHG[S5]QLR[S5]LANK-OH; staple 15-19) | 56.4 ± 3.0
CCCC[C@H](NC(=O)[C@H](Cc1c[nH]c2ccccc12)NC(C)=O)C(=O)N[C@@H](CC(=O)O)C(=O)N[C@@H](CC(=O)O)C(=O)N[C@@H](CCC(=O)O)C(=O)N[C@@H](Cc1ccccc1)C(=O)N[C@@H](C)C(=O)N[C@@H](C)C(=O)N[C@H](C(=O)N[C@@H](CCCC)C(=O)N[C@@H](C)C(=O)N[C@H](C(=O)N[C@@H](Cc1c[nH]cn1)C(=O)NCC(=O)N[C@@H](CC(N)=O)C(=O)N[C@@H](CCC(=O)O)C(=O)N[C@@H](CC(C)C)C(=O)N[C@@H](CCCNC(=N)N)C(=O)N[C@@H](CCC(=O)O)C(=O)N[C@@H](CC(C)C)C(=O)N[C@@H](C)C(=O)N[C@@H](CCCNC(=N)N)C(=O)N[C@@H](CCCCN)C(=O)O)C(C)C)[C@@H](C)CC [Peptide 13] (Ac-W[Nle]DDEFAAI[Nle]AVHGNELRELARK-OH) | 72.7 ± 0.4
CCCC[C@H](NC(=O)[C@H](Cc1c[nH]c2ccccc12)NC(C)=O)C(=O)N[C@@]1(C)CCCC=CCCC[C@@](C)(C(=O)N[C@@H](C)C(=O)N[C@H](C(=O)N[C@@H](CCCC)C(=O)N[C@@H](C)C(=O)N[C@H](C(=O)N[C@@H](Cc2c[nH]cn2)C(=O)NCC(=O)N[C@@H](CCCNC(=N)N)C(=O)N[C@@H](CCC(N)=O)C(=O)N[C@@H](CC(C)C)C(=O)N[C@@H](CCCNC(=N)N)C(=O)N[C@@H](CCCNC(=N)N)C(=O)N[C@@H](CC(C)C)C(=O)N[C@@H](C)C(=O)N[C@@H](CCCNC(=N)N)C(=O)N[C@@H](CCCCN)C(=O)O)C(C)C)[C@@H](C)CC)NC(=O)[C@H](Cc2ccccc2)NC(=O)[C@H](CCC(=O)O)NC(=O)[C@H](CC(N)=O)NC1=O [Peptide 34] (Ac-W[Nle][S5]NEF[S5]AI[Nle]AVHGRQLRRLARK-OH; staple 3-7) | 58.9 ± 1.1
